The values below come from patent US10040781B2, “Tank-binding kinase inhibitor compounds” (Gilead Sciences, Inc., priority 2014, dated 2018).

The assay concerns the target hJAK2 (Homo sapiens (Human), UniProt O60674). The assay can be described thus: hJAK2 LANCE TR-FRET enzymatic assay. Type of assay: biochemical. To be noted: read-out: JAK2 IC50. For orientation: Time-resolved FRET reads energy transfer from a long-lived donor to a nearby acceptor.

What is called IC50 is the midpoint of a concentration-inhibition curve.

Sequence of hJAK2 (O60674 whole entry): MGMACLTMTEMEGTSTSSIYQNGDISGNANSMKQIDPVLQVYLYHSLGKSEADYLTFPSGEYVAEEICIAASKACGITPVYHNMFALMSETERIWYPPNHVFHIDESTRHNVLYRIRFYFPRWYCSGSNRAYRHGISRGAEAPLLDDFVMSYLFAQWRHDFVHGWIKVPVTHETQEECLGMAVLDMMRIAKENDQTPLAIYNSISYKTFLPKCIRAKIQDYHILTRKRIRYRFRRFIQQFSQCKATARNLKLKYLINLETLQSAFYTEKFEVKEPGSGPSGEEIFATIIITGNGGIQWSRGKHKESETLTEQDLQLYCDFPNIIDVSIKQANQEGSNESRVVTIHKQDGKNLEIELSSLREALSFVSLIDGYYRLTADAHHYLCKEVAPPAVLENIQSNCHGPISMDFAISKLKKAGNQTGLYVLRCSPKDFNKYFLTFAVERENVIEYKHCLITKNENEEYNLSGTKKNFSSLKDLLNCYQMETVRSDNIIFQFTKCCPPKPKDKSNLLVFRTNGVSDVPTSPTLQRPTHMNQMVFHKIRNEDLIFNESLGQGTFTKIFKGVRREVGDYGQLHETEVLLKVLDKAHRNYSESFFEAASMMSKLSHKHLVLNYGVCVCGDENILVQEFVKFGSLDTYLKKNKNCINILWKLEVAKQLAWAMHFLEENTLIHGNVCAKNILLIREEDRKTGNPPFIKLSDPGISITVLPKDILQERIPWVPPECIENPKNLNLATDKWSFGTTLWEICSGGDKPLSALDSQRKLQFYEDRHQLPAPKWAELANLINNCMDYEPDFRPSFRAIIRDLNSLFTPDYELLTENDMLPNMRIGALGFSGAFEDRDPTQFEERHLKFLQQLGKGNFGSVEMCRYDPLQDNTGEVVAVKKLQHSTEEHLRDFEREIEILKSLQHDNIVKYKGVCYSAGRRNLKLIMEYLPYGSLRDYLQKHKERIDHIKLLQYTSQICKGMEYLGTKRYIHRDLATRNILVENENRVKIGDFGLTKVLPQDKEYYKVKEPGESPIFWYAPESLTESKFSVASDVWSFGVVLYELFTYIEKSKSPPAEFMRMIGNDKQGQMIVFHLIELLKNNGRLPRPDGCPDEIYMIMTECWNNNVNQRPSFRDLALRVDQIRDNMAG

In the case of `C[C@H](O)C(=O)N1CC[C@H](Oc2ccc(-c3ncnc(Nc4ccc(N5CCN(C6COC6)CC5)c(Cl)c4)n3)cc2C#N)[C@H](F)C1` [Example 378, 5-(4-((3-chloro-4-(4-(oxetan-3-yl)piperazin-1-yl)phenyl)amino)-1,3,5-triazin-2-yl)-2-(((3R,4S)-3-fluoro-1-((S)-2-hydroxypropanoyl)piperidin-4-yl)oxy)benzonitrile], the IC50 was 173 nM.
On to `C[C@H]1CN(C2COC2)CCN1c1ccc(Nc2ncnc(-c3ccc(O[C@H]4CCN(C(=O)[C@@H]5CCC(=O)N5)C[C@H]4F)c(C#N)c3)n2)cc1` [Example 381, 2-(((3R,4S)-3-fluoro-1-((S)-5-oxopyrrolidine-2-carbonyl)piperidin-4-yl)oxy)-5-(4-((4-((S)-2-methyl-4-(oxetan-3-yl)piperazin-1-yl)phenyl)amino)-1,3,5-triazin-2-yl)benzonitrile], for which the IC50 is at least 1000 nM.
As for `C[C@H](O)C(=O)N1CC[C@H](Oc2ccc(-c3ncnc(Nc4ccc(O[C@H]5CCN(C6COC6)C[C@H]5F)cc4)n3)cc2C#N)[C@H](F)C1` [Example 401, 2-(((3R,4S)-3-fluoro-1-((S)-2-hydroxypropanoyl)piperidin-4-yl)oxy)-5-(4-((4-(((3R,4S)-3-fluoro-1-(oxetan-3-yl)piperidin-4-yl)oxy)phenyl)amino)-1,3,5-triazin-2-yl)benzonitrile], the IC50 is at least 1000 nM.
As to `N#Cc1cc(-c2ncnc(Nc3ccc(N4CCN(C5COC5)CC4)cc3)n2)ccc1O[C@H]1CCN(C(=O)[C@@H]2C[C@@H](O)C(=O)N2)C[C@H]1F` [Example 403, 2-(((3R,4S)-3-fluoro-1-((2S,4R)-4-hydroxy-5-oxopyrrolidine-2-carbonyl)piperidin-4-yl)oxy)-5-(4-((4-(4-(oxetan-3-yl)piperazin-1-yl)phenyl)amino)-1,3,5-triazin-2-yl)benzonitrile], the IC50 turned out to be 858 nM.
The same measure for `N#Cc1cc(-c2ncnc(Nc3ccc(N4CCN(C5COC5)CC4)cc3)n2)ccc1O[C@H]1CCN(C(=O)[C@@H]2C[C@@H](F)C(=O)N2)C[C@H]1F` [Example 405, 2-(((3R,4S)-3-fluoro-1-((2S,4R)-4-fluoro-5-oxopyrrolidine-2-carbonyl)piperidin-4-yl)oxy)-5-(4-((4-(4-(oxetan-3-yl)piperazin-1-yl)phenyl)amino)-1,3,5-triazin-2-yl)benzonitrile]: at least 1000 nM.
Then `N#Cc1cc(-c2ncnc(Nc3ccc(N4CCN(C5COC5)CC4)cc3)n2)ccc1O[C@H]1CCN(C(=O)[C@@H]2C[C@H](F)C(=O)N2)C[C@H]1F` [Example 406, 2-(((3R,4S)-3-fluoro-1-((2S,4S)-4-fluoro-5-oxopyrrolidine-2-carbonyl)piperidin-4-yl)oxy)-5-(4-((4-(4-(oxetan-3-yl)piperazin-1-yl)phenyl)amino)-1,3,5-triazin-2-yl)benzonitrile], with at least 1000 nM.
Take `N#Cc1cc(-c2ncnc(Nc3ccc(N4CCN(C5COC5)CC4)cc3)n2)ccc1O[C@H]1CCN(C(=O)[C@@H]2C[C@H](O)C(=O)N2)C[C@H]1F` [Example 410, 2-(((3R,4S)-3-fluoro-1-((2S,4S)-4-hydroxy-5-oxopyrrolidine-2-carbonyl)piperidin-4-yl)oxy)-5-(4-((4-(4-(oxetan-3-yl)piperazin-1-yl)phenyl)amino)-1,3,5-triazin-2-yl)benzonitrile]: the IC50 was 450 nM.
The same measure for `Cc1n[nH]c(C(=O)N2CC[C@H](Oc3ccc(-c4ncnc(Nc5ccc(N6CCN(C7COC7)CC6)cc5)n4)cc3C#N)[C@H](F)C2)n1` [Example 451, 2-(((3R,4S)-3-fluoro-1-(3-methyl-1H-1,2,4-triazole-5-carbonyl)piperidin-4-yl)oxy)-5-(4-((4-(4-(oxetan-3-yl)piperazin-1-yl)phenyl)amino)-1,3,5-triazin-2-yl)benzonitrile]: 90 nM.
Then `N#Cc1cc(-c2ncnc(Nc3cnn(C(F)F)c3)n2)ccc1O[C@H]1CCN(C(=O)CO)C[C@H]1F` [Example 454, 5-(4-((1-(difluoromethyl)-1H-pyrazol-4-yl)amino)-1,3,5-triazin-2-yl)-2-(((3R,4S)-3-fluoro-1-(2-hydroxyacetyl)piperidin-4-yl)oxy)benzonitrile], with 621 nM; and `C[C@@H](O)C(=O)N1CC[C@H](Oc2ccc(-c3ncnc(Nc4ccc(N5CCN(C6COC6)CC5)cc4)n3)cc2C#N)[C@H](F)C1` [Example 464, 2-(((3R,4S)-3-fluoro-1-((R)-2-hydroxypropanoyl)piperidin-4-yl)oxy)-5-(4-((4-(4-(oxetan-3-yl)piperazin-1-yl)phenyl)amino)-1,3,5-triazin-2-yl)benzonitrile], with 332 nM.
Then `CC(=O)N1CC[C@H](Oc2ccc(-c3ncnc(Nc4ccc(S(C)(=N)=O)cc4)n3)cc2C#N)C(F)(F)C1` (some centres unmarked) [Example 481], with 320 nM; and `COc1cc(Nc2ncnc(-c3ccc(O[C@H]4CCN(C(=O)[C@H](C)O)C[C@H]4F)c(C#N)c3)n2)cnc1N1CCN(C2COC2)CC1` [Example 514, 2-(((3R,4S)-3-fluoro-1-((S)-2-hydroxypropanoyl)piperidin-4-yl)oxy)-5-(4-((5-methoxy-6-(4-(oxetan-3-yl)piperazin-1-yl)pyridin-3-yl)amino)-1,3,5-triazin-2-yl)benzonitrile], with at least 1000 nM; and `C[C@H](O)C(=O)N1CC[C@H](Oc2ccc(-c3ncnc(Nc4ccc([C@@H]5C(=O)N(C)CCN5C)cc4)n3)cc2C#N)[C@H](F)C1` [Example 518, 5-(4-((4-((R)-1,4-dimethyl-3-oxopiperazin-2-yl)phenyl)amino)-1,3,5-triazin-2-yl)-2-(((3R,4S)-3-fluoro-1-((S)-2-hydroxypropanoyl)piperidin-4-yl)oxy)benzonitrile], with at least 1000 nM.
`N#Cc1cc(-c2ncnc(Nc3ccc(N4CCN(C5COC5)CC4)cc3)n2)ccc1O[C@H]1CCN(C(=O)[C@@H]2CSC(=O)N2)C[C@H]1F` [Example 530, 2-(((3R,4S)-3-fluoro-1-((R)-2-oxothiazolidine-4-carbonyl)piperidin-4-yl)oxy)-5-(4-((4-(4-(oxetan-3-yl)piperazin-1-yl)phenyl)amino)-1,3,5-triazin-2-yl)benzonitrile]: the IC50 is 289 nM.
As to `COc1cc(Nc2ncnc(-c3ccc(O[C@H]4CCN(C(=O)CC#N)C[C@H]4F)c(C#N)c3)n2)ccc1N1CCN(C2COC2)CC1` [Example 558, 2-(((3R,4S)-1-(2-cyanoacetyl)-3-fluoropiperidin-4-yl)oxy)-5-(4-((3-methoxy-4-(4-(oxetan-3-yl)piperazin-1-yl)phenyl)amino)-1,3,5-triazin-2-yl)benzonitrile], the IC50 came out at 26 nM.
The same measure for `Cc1cc(Nc2ncnc(-c3ccc(O[C@H]4CCN(C(=O)[C@@H](O)CO)C[C@H]4F)c(C#N)c3)n2)ccc1N1CCN(C2COC2)CC1` [Example 575, 2-(((3R,4S)-1-((S)-2,3-dihydroxypropanoyl)-3-fluoropiperidin-4-yl)oxy)-5-(4-((3-methyl-4-(4-(oxetan-3-yl)piperazin-1-yl)phenyl)amino)-1,3,5-triazin-2-yl)benzonitrile]: 62 nM.
The same measure for `Cc1cc(Nc2ncnc(-c3ccc(O[C@H]4CCN(C(=O)[C@H](O)CO)C[C@H]4F)c(C#N)c3)n2)ccc1N1CCN(C2COC2)CC1` [Example 576, 2-(((3R,4S)-1-((R)-2,3-dihydroxypropanoyl)-3-fluoropiperidin-4-yl)oxy)-5-(4-((3-methyl-4-(4-(oxetan-3-yl)piperazin-1-yl)phenyl)amino)-1,3,5-triazin-2-yl)benzonitrile]: 56 nM.
